Data reported in ChEMBL document CHEMBL5584327, “Phenylstyrylpyrimidine derivatives as potential multipotent therapeutics for Alzheimer's disease” (RSC Med Chem, 2024).
Active and inactive are the calls of the source. The calls are words filed in the database; no cut-off is given here.

Experiments:
[1] = biological target: T1, Amine oxidase [flavin-containing] B (Homo sapiens, UniProt P27338); test: Inhibition of human MAO-B using p-tyramine as substrate incubated for 30 mins by Amplex Red reagent based fluorescence analysis
T1 sequence (P27338 whole entry): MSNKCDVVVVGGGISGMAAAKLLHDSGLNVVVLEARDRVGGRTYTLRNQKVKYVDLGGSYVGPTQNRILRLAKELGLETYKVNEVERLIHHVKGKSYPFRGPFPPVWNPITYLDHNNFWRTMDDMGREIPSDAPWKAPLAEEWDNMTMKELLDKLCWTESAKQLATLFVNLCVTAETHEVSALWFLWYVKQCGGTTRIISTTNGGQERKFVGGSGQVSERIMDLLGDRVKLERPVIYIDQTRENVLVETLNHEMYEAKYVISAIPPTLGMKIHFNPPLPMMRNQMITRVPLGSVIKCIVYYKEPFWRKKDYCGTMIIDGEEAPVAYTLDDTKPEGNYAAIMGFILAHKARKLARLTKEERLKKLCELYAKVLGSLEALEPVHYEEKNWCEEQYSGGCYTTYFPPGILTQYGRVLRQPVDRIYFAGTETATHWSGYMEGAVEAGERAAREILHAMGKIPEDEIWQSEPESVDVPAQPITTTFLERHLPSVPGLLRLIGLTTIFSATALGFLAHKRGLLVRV

[2] = biological target: T1, Amine oxidase [flavin-containing] B; test: Inhibition of human MAO-B at 10 uM using p-tyramine as substrate incubated for 30 mins by Amplex Red reagent based fluorescence analysis relative to control; settings: 0.5 h
[3] = biological target: Cholinesterase (Equus caballus) (UniProt P81908); test: Inhibition of equine BuChE at 25 uM using butyryl-thiocholine iodide as substrate incubated for 30 min by DTNB reagent based Ellman's method
Chain of Cholinesterase (Equus caballus) (P81908 whole entry): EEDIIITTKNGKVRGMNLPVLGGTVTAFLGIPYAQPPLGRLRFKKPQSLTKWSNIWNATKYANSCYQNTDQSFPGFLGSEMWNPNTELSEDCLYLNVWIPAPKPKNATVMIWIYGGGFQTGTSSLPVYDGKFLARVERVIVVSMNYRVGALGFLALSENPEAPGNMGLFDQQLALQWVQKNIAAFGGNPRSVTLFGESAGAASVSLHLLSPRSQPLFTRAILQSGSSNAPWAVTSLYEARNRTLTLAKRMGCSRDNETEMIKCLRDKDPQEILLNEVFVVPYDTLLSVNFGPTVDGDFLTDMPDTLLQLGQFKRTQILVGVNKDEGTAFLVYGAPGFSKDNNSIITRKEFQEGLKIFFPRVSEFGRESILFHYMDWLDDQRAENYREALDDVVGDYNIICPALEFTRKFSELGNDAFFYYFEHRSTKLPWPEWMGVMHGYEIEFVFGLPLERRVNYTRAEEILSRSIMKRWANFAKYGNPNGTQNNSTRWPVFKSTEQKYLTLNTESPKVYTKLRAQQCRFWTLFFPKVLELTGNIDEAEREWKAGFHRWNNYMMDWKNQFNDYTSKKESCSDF

[4] = biological target: Acetylcholinesterase (Electrophorus electricus) (UniProt O42275); test: Inhibition of electric eel AChE at 20 uM using acetylthiocholine iodide as substrate incubated for 30 min by DTNB reagent based Ellman's method relative to control
Chain of Acetylcholinesterase (Electrophorus electricus) (O42275 24-633 limits assumed): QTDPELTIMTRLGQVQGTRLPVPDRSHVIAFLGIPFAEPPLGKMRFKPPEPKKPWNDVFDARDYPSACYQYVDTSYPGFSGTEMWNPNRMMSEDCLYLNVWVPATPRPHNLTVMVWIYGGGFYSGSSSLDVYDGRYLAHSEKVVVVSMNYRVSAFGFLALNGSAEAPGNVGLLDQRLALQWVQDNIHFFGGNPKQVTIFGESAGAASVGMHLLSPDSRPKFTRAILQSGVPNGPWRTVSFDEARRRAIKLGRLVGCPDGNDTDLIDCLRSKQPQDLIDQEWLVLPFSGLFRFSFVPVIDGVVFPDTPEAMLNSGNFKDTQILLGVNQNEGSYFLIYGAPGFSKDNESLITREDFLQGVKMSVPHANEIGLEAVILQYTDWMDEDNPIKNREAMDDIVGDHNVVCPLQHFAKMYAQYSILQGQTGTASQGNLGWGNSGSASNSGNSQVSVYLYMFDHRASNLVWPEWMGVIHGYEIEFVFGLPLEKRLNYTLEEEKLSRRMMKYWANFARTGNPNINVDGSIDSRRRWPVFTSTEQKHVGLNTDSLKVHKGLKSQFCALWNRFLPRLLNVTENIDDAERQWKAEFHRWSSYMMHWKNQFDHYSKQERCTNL

[5] = biological target: Acetylcholinesterase (Electrophorus electricus, UniProt O42275); test: Inhibition of electric eel AChE using acetylthiocholine iodide as substrate incubated for 30 min by DTNB reagent based Ellman's method
Chain of Acetylcholinesterase (Electrophorus electricus, UniProt O42275) (O42275 whole entry): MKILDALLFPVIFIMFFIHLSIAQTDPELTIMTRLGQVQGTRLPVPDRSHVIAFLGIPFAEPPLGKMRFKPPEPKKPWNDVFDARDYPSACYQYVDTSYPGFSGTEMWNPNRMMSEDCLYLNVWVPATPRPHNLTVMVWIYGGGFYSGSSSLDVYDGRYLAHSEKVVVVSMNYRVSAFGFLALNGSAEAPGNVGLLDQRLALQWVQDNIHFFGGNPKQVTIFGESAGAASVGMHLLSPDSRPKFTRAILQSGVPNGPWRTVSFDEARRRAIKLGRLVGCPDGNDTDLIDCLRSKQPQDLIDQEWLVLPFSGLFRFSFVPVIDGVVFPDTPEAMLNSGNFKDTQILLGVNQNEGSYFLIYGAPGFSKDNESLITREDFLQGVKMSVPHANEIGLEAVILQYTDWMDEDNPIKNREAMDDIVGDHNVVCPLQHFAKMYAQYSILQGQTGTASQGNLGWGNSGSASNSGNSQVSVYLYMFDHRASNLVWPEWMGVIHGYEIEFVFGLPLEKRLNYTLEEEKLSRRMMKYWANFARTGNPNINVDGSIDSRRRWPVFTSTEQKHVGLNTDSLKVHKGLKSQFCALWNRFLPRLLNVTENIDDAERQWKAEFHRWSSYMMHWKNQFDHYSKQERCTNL

[6] = biological target: T2, Amine oxidase [flavin-containing] A (Homo sapiens, UniProt P21397); test: Inhibition of human MAO-A at 25 uM using p-tyramine as substrate incubated for 30 mins by Amplex Red reagent based fluorescence analysis; settings: 0.5 h
T2 sequence (P21397 whole entry): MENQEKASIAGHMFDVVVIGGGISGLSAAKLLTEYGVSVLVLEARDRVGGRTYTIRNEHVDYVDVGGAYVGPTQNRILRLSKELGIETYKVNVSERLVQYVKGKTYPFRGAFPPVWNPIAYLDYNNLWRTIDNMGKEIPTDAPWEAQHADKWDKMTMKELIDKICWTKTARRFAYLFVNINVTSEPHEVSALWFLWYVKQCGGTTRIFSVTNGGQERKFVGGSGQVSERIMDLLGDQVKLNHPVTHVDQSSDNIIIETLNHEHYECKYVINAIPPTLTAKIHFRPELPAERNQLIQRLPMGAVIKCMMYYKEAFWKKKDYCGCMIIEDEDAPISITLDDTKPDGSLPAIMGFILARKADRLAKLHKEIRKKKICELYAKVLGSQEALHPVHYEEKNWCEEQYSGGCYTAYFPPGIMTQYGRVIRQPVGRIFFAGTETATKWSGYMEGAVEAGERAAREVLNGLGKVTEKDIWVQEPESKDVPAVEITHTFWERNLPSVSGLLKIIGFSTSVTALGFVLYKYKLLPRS

[7] = biological target: Acetylcholinesterase (Electrophorus electricus) (UniProt O42275); test: Inhibition of electric eel AChE assessed as residual activity at 100 time IC50 concentration using acetylthiocholine iodide as substrate incubated for 30 min by DTNB reagent based Ellman's method (reference value: 100 +/- 0.37%)
[8] = biological target: T1, Amine oxidase [flavin-containing] B; test: Reversible inhibition of human MAO-B assessed as residual activity at 100 time IC50 concentration using p-tyramine as substrate incubated for 30 mins followed by 100-fold dilution with substrate and buffer solutions by Amplex Red reagent based fluorescence analysis (reference value: 100 +/- 0.37%); settings: 0.5 h
[9] = biological target: Acetylcholinesterase (Electrophorus electricus) (UniProt O42275); test: Inhibition of electric eel AChE assessed as residual activity at 10 time IC50 concentration using acetylthiocholine iodide as substrate incubated for 30 min by DTNB reagent based Ellman's method (reference value: 100 +/- 0.37%)
[10] = biological target: Acetylcholinesterase (Electrophorus electricus) (UniProt O42275); test: Reversible inhibition of electric eel AChE assessed as residual activity at 10 time IC50 concentration using acetylthiocholine iodide as substrate incubated for 30 min followed by 100-fold dilution with substrate and buffer solutions by DTNB reagent based Ellman's method (reference value: 100 +/- 0.37%)
[11] = Cytotoxicity against human SH-SY5Y cells assessed as cell viability at 25 uM by MTT assay (reference value: 100 +/- 0.22); type: toxicity, cell-based; settings: read-out: Activity
[12] = biological target: Acetylcholinesterase (Electrophorus electricus) (UniProt O42275); test: Non-competitive inhibition of electric eel AChE assessed as decrease in Vmax using acetylthiocholine iodide as substrate incubated for 30 min by Ellman's method based Lineweaver-Burk plot analysis
[13] = biological target: Acetylcholinesterase (Electrophorus electricus) (UniProt O42275); test: Non-competitive inhibition of electric eel AChE assessed as increase in Km using acetylthiocholine iodide as substrate incubated for 30 min by Ellman's method based Lineweaver-Burk plot analysis
[14] = biological target: T2, Amine oxidase [flavin-containing] A; test: Inhibition of human MAO-A at 10 uM using p-tyramine as substrate incubated for 30 mins by Amplex Red reagent based fluorescence analysis relative to control; settings: 0.5 h
[15] = biological target: Cholinesterase (Equus caballus) (UniProt P81908); test: Inhibition of equine BuChE at 20 uM using butyryl-thiocholine iodide as substrate incubated for 30 min by DTNB reagent based Ellman's method relative to control
[16] = biological target: T1, Amine oxidase [flavin-containing] B; test: Inhibition of human MAO-B assessed as residual activity at 100 time IC50 concentration using p-tyramine as substrate incubated for 30 mins by Amplex Red reagent based fluorescence analysis (reference value: 100 +/- 0.37%); settings: 0.5 h
[17] = biological target: T1, Amine oxidase [flavin-containing] B; test: Inhibition of human MAO-B assessed as residual activity at 10 time IC50 concentration using p-tyramine as substrate incubated for 30 mins by Amplex Red reagent based fluorescence analysis (reference value: 100 +/- 0.37%); settings: 0.5 h
[18] = biological target: T1, Amine oxidase [flavin-containing] B; test: Reversible inhibition of human MAO-B assessed as residual activity at 10 time IC50 concentration using p-tyramine as substrate incubated for 30 mins followed by 100-fold dilution with substrate and buffer solutions by Amplex Red reagent based fluorescence analysis (reference value: 100 +/- 0.37%); settings: 0.5 h
[19] = Cytotoxicity against human SH-SY5Y cells assessed as cell viability at 5 uM by MTT assay (reference value: 100 +/- 0.22); type: toxicity, cell-based; settings: read-out: Activity
[20] = biological target: Amyloid-beta precursor protein (Homo sapiens) (UniProt P05067); test: Inhibition of amyloid beta (1 to 42) (unknown origin) aggregation at 10 uM incubated for 48 hrs by ThT assay relative to control
Chain of Amyloid-beta precursor protein (Homo sapiens) (P05067 whole entry): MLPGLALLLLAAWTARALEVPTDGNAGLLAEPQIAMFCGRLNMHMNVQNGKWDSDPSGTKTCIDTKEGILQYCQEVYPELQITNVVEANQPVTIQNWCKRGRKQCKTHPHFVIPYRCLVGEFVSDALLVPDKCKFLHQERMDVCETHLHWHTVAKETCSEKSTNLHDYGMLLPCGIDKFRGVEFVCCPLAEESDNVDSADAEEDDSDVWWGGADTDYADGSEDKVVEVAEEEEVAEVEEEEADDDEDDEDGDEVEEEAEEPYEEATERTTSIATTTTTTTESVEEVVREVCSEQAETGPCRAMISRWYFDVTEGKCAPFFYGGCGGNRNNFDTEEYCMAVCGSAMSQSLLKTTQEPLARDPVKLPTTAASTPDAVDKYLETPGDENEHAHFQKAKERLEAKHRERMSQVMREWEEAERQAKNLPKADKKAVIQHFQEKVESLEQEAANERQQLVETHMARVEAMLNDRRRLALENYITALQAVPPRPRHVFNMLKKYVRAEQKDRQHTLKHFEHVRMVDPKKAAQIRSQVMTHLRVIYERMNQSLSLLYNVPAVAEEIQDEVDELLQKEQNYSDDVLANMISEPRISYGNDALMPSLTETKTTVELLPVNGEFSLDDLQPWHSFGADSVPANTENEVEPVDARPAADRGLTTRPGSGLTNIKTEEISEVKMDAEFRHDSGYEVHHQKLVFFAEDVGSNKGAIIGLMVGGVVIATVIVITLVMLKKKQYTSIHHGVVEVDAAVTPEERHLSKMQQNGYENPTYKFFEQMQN

[21] = biological target: Acetylcholinesterase (Electrophorus electricus) (UniProt O42275); test: Reversible inhibition of electric eel AChE assessed as residual activity at 100 time IC50 concentration using acetylthiocholine iodide as substrate incubated for 30 min followed by 100-fold dilution with substrate and buffer solutions by DTNB reagent based Ellman's method (reference value: 100 +/- 0.37%)
[22] = biological target: Amyloid-beta precursor protein (Homo sapiens) (UniProt P05067); test: Inhibition of amyloid beta (1 to 42) (unknown origin) aggregation at 10 uM incubated for 24 hrs by ThT assay relative to control
[23] = Cytotoxicity against human SH-SY5Y cells assessed as cell viability at 1 uM by MTT assay (reference value: 100 +/- 0.22); type: toxicity, cell-based; settings: read-out: Activity
[24] = biological target: Acetylcholinesterase (Homo sapiens, UniProt P22303); test: Inhibition of AChE (unknown origin)
Chain of Acetylcholinesterase (Homo sapiens, UniProt P22303) (P22303 whole entry): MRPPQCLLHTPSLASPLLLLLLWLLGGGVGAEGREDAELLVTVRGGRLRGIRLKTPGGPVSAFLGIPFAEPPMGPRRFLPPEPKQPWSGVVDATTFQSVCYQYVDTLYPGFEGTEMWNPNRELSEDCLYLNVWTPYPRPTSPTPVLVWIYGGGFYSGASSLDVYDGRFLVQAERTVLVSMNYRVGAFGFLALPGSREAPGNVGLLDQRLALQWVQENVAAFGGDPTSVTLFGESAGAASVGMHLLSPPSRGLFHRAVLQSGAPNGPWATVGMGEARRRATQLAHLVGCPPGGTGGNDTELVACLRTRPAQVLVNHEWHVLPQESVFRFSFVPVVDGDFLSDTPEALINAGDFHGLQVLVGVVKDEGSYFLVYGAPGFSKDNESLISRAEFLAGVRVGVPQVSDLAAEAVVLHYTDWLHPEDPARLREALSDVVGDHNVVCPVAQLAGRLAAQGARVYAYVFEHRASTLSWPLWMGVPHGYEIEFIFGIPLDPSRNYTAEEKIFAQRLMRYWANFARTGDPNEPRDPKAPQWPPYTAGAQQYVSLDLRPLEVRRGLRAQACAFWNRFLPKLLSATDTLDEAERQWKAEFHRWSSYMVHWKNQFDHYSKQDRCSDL

[25] = Inhibition of MAO (unknown origin); parameters: species or system Homo sapiens
[26] = biological target: T1, Amine oxidase [flavin-containing] B; test: Inhibition of MAO-B (unknown origin)

Structure (SMILES) | inhibition at 10 µM [2] [%] | inhibition [4] [%] | inhibition at 10 µM [14] [%] | inhibition [15] [%] | further results
C#CCOc1ccc(-c2cc(/C=C\c3ccccc3)ncn2)cc1 | 67.5 | 63.4 |  |  | IC50 [1]: 10.9 µM; inhibition [3]: inactive; IC50 [5]: 7.49 µM; inhibition (INH) [6]: Not Active
C#CCOc1cccc(-c2cc(/C=C/c3ccccc3)ncn2)c1 | 76.4 | 69.2 | 13.9 | 6.43 | IC50 [1]: 4.93 µM; Activity [7]: 13.6%; Activity [8]: 36.72%; Activity [9]: 5.18%; Activity [10]: 96.7%; viability at 25 µM [11]: 86.5%; inhibition [12]: Active; inhibition [13]: Active; Activity [16]: 3.4%; Activity [17]: 2.6%; Activity [18]: 34.91%; viability at 5 µM [19]: 90.7%; IC50 [5]: 9.02 µM; inhibition [20]: 33%; Activity [21]: 47.9%; inhibition [22]: 29.3%; viability at 1 µM [23]: 91%
N#Cc1cccnc1N1CCN(c2cc(Oc3cccc4cccnc34)ncn2)CC1 |  |  |  |  | IC50 [24]: 36 nM
C#CCOc1ccc(-c2cc(/C=C/c3ccccc3)nc(C)n2)cc1C | 0.27 | 67 | 0.96 |  | inhibition [3]: inactive
C#CCOc1cccc(-c2cc(/C=C/c3ccccc3)nc(C)n2)c1 | 2.96 | 61.6 | 15.5 | 3.17 | 
O=C1c2ccccc2-c2cnc(-c3ccccc3)nc21 |  |  |  |  | IC50 [25]: 2370 nM
C#CCOc1ccc(-c2cc(/C=C/c3ccccc3)nc(N)n2)cc1C | 11.9 | 62.6 | 13.1 |  | inhibition [3]: inactive
C#CCNc1ccccc1-c1cc(-c2ccc(OCCN3CCCCC3)cc2)nc(N)n1 |  |  |  |  | IC50 [26]: 370 nM; IC50 [24]: 40000 nM
C#CCOc1cccc(-c2cc(/C=C/c3ccccc3)nc(-c3ccccc3)n2)c1 | 4.89 | 69.6 | 0.4 | 1.5 | 
C#CCOc1ccccc1-c1cc(/C=C/c2ccccc2)nc(-c2ccccc2)n1 | 3.49 | 64.2 | 9.57 | 3.6 | 
C#CCOc1cccc(-c2cc(/C(C)=C\c3ccccc3)nc(N)n2)c1 | 69.7 | 66.3 | 12 | 7.03 | IC50 [1]: 8.15 µM; IC50 [5]: 8.48 µM
C#CCOc1cccc(-c2cc(/C(C)=C/c3ccccc3)ncn2)c1 | 23.4 | 65.7 | 0.87 |  | inhibition [3]: inactive
C#CCOc1ccc(-c2cc(/C=C/c3ccccc3)nc(-c3ccccc3)n2)cc1 | 7.18 | 70.2 | 20.9 | 3.6 | 
C#CCOc1ccc(-c2cc(/C(C)=C/c3ccccc3)nc(N)n2)cc1 | 1.79 | 71.3 | 8.66 | 3.04 | 
C#CCOc1ccc(-c2cc(/C=C/c3ccccc3)nc(N)n2)cc1 | 9.28 | 68.5 | 8.61 | 2.12 | 
Oc1ccc(/C=C/c2cc(O)cc(O)c2)cc1 |  |  |  |  | inhibition [22]: 54.6%
C#CCOc1ccc(-c2cc(/C(C)=C\c3ccccc3)ncn2)cc1 | 71.2 | 69 |  | 9.69 | IC50 [1]: 7.26 µM; Activity [7]: 18.6%; Activity [8]: 36.07%; Activity [9]: 7.45%; Activity [10]: 97.1%; viability at 25 µM [11]: 95.7%; inhibition [12]: Active; inhibition [13]: Active; Activity [16]: 2.79%; Activity [17]: 2.79%; Activity [18]: 30.37%; viability at 5 µM [19]: 96.3%; IC50 [5]: 9.29 µM; inhibition [20]: 23.2%; Activity [21]: 42.9%; inhibition [22]: 21.6%; viability at 1 µM [23]: 98.1%; inhibition (INH) [6]: Not Active
C#CCOc1ccc(-c2cc(/C(C)=C/c3ccccc3)nc(C)n2)cc1 | 15.7 | 60.5 | 10.9 |  | inhibition [3]: inactive
C#CCOc1ccc(-c2cc(-c3ccc(OCC#C)cc3)nc(N)n2)cc1 |  |  |  |  | IC50 [24]: 1350 nM
C#CCOc1ccc(-c2cc(/C=C/c3ccccc3)nc(C)n2)cc1 | 20.9 | 62.8 | 10 | 8.16 | 
